Experimental data published in patent publication US20260000708A1, “Copper Hydrogel Beads as a Diet Supplement” (Texas Tech University System, priority 2021, published 2026).

Test system: Salmonella
Test: Time-release formulation compared to copper sulfate alone against Salmonella cells in vitro
Type: cell-based
Conditions: after application (FIG. 3)

SMILES: O=S(=O)([O-])[O-].[Cu+2] [copper sulfate]
- Duration of effectiveness against Salmonella: only effective for a short time
